In patent US20150366943A1, “MOBILIZATION OF HEMATOPOIETIC STEM CELLS FROM BONE MARROW TO BLOOD USING A COMBINATION OF A ROBO4 RECEPTOR ANTAGONIST AND A CXCR4 ANTAGONIST OR hrVEGF-165 AND A CXCR4 ANTAGONIST” (The Regents of the University of California, priority 2012, published 2015):

B1: Slit2: the Robo ligand Slit2, a large secreted protein (protein, UniProt O94813 31-1529, looked up)
Slit homolog 2 protein: QCSCSGSTVDCHGLALRSVPRNIPRNTERLDLNGNNITRITKTDFAGLRHLRVLQLMENKISTIERGAFQDLKELERLRLNRNHLQLFPELLFLGTAKLYRLDLSENQIQAIPRKAFRGAVDIKNLQLDYNQISCIEDGAFRALRDLEVLTLNNNNITRLSVASFNHMPKLRTFRLHSNNLYCDCHLAWLSDWLRQRPRVGLYTQCMGPSHLRGHNVAEVQKREFVCSGHQSFMAPSCSVLHCPAACTCSNNIVDCRGKGLTEIPTNLPETITEIRLEQNTIKVIPPGAFSPYKKLRRIDLSNNQISELAPDAFQGLRSLNSLVLYGNKITELPKSLFEGLFSLQLLLLNANKINCLRVDAFQDLHNLNLLSLYDNKLQTIAKGTFSPLRAIQTMHLAQNPFICDCHLKWLADYLHTNPIETSGARCTSPRRLANKRIGQIKSKKFRCSAKEQYFIPGTEDYRSKLSGDCFADLACPEKCRCEGTTVDCSNQKLNKIPEHIPQYTAELRLNNNEFTVLEATGIFKKLPQLRKINFSNNKITDIEEGAFEGASGVNEILLTSNRLENVQHKMFKGLESLKTLMLRSNRITCVGNDSFIGLSSVRLLSLYDNQITTVAPGAFDTLHSLSTLNLLANPFNCNCYLAWLGEWLRKKRIVTGNPRCQKPYFLKEIPIQDVAIQDFTCDDGNDDNSCSPLSRCPTECTCLDTVVRCSNKGLKVLPKGIPRDVTELYLDGNQFTLVPKELSNYKHLTLIDLSNNRISTLSNQSFSNMTQLLTLILSYNRLRCIPPRTFDGLKSLRLLSLHGNDISVVPEGAFNDLSALSHLAIGANPLYCDCNMQWLSDWVKSEYKEPGIARCAGPGEMADKLLLTTPSKKFTCQGPVDVNILAKCNPCLSNPCKNDGTCNSDPVDFYRCTCPYGFKGQDCDVPIHACISNPCKHGGTCHLKEGEEDGFWCICADGFEGENCEVNVDDCEDNDCENNSTCVDGINNYTCLCPPEYTGELCEEKLDFCAQDLNPCQHDSKCILTPKGFKCDCTPGYVGEHCDIDFDDCQDNKCKNGAHCTDAVNGYTCICPEGYSGLFCEFSPPMVLPRTSPCDNFDCQNGAQCIVRINEPICQCLPGYQGEKCEKLVSVNFINKESYLQIPSAKVRPQTNITLQIATDEDSGILLYKGDKDHIAVELYRGRVRASYDTGSHPASAIYSVETINDGNFHIVELLALDQSLSLSVDGGNPKIITNLSKQSTLNFDSPLYVGGMPGKSNVASLRQAPGQNGTSFHGCIRNLYINSELQDFQKVPMQTGILPGCEPCHKKVCAHGTCQPSSQAGFTCECQEGWMGPLCDQRTNDPCLGNKCVHGTCLPINAFSYSCKCLEGHGGVLCDEEEDLFNPCQAIKCKHGKCRLSGLGQPYCECSSGYTGDSCDREISCRGERIRDYYQKQQGYAACQTTKKVSRLECRGGCAGGQCCGPLRSKRRKYSFECTDGSSFVDEVEKVVKCGCTRCVS

Assays:
[1] = test system: HSC localization to the BM; details: three hours post-injection
Method: BM cells were labeled with CFSE labeling dye (Invitrogen) for 5 minutes at ambient temperature, followed by antibody labeling and isolation of cKit^+/Lin^−/Sca1^+/CFSE^hi cells by two rounds of FACS. Sorted cells were split in two equal parts and incubated with or without AMD3100 ([…]) on ice for 30 minutes. Cells were washed, pelleted by centrifugation, and resuspended in HBSS at 400,000 cells/ml. Hosts, lethally irradiated 24 hours prior to transplantation, were injected IV with 40,000 cells in 100 μI. Three hours post-transplant, tissues were harvested from individual mice and analyzed for CFSE labeled cells by flow cytometry. Total cell numbers were counted using a Beckman Coulter Cell Counter.

[2] = test system: BM cell (HSC, T cell) migration toward Sdf1; assay: Modified Boyden (transwell) migration assay; format: cell-based, mice
Method: BM cells (lineage depleted by magnetic selection, when appropriate), were preincubated at 37° C. for one hour, then placed in the upper chamber of a transwell insert (5 μm pore size). Bottom and/or top wells contained Sdf1 (100 ng/ml) and/or Slit2, as indicated. Cells were allowed to migrate for 2 hrs at 37° C. before harvesting and analysis by flow cytometry.

[3] = test system: hematopoietic stem cells (HSC) and progenitors in peripheral blood; details: previous reports (Bonig 2009; Broxmeyer 2005); cited from earlier work
[4] = test system: hematopoietic stem cells (HSC) and progenitors in peripheral blood
Method: Briefly, mice were injected IP with 200 mg/kg of Cytoxan in HBSS (Sigma-Aldrich) on day −1, followed by 2 or 4 sequential daily sub-cutaneous injections of […] rhG-CSF (Humanzyme, Chicago, Ill.). Tissues were analyzed on day 2 or 4, as indicated (FIGS. 3A, 4A). A cohort from each group was injected IV with 5 mg/kg of AMD3100 1 hour prior to sacrifice. For AMD3100 alone, mice were treated with two serial AMD3100 (5 mg/kg) IV injections one hour apart. Peripheral blood, spleen, and bone marrow were isolated one hour later and processed for cell counts and flow cytometry analysis to determine the numbers and frequencies of each cell population.

HL60 cells = assay: HL60 cell migration toward fMLP; format: cell-based; details: Slit2, FIG. 11C
Method: (A) Purified Sdf1 (100 ng/ml) with and without Slit2 (250 or 500 ng/ml) was placed in bottom wells and the migration of lineage-depleted BM cells after a 2-hour incubation period were quantitated by flow cytometry. […] (B) Slit2 had no effect on T cell migration by itself (black bars) or in combination with Sdf1 (purple bars) in vitro. Experiment performed as in A, except unfractionated BM cells were placed in top wells. (C) Slit2 attenuated HL60 cell migration toward fMLP. Data shown are representative of at least two (C) or three (A and B) independent experiments. Error bars represent SEM. *p<0.03.

wt HSC = assay: In vitro proliferation of HSC; format: cell-based, mice; details: Slit2 4 ug/ml, FIG. 9E
Method: HSC and MPP were isolated and sorted from Robo4^−/− and wt mice as previously described. 90-200 cells were plated per well of either strain into a 96-well U-bottom tissue culture plate and cultured for up to 10 days in IMEM medium (Fisher) supplemented with 10% FBS, 25 ng/ml of IL-11, 25 ng/ml of GM-CSF, 25 ng/ml of SCF, 10 ng/ml IL-3 (Cytokines from Peprotech) and Primocin (Invivogen). On days 3, 5, 7, and 10 FITC-labeled spherobeads (BD Bioscience) were added and triplicate samples were analyzed using a FACSAria. Cell expansion rates were calculated based on the number of beads recovered per 10,000 beads added per well.

Molecule | reduction in donor cells localizing to the BM ([1]; AMD3100 preincubation of wt cells, FIG. 6B) [fold] | BM localization of Robo4-deficient cells treated with AMD3100 ([1]; FIG. 6B) | donor cells in the blood stream ([1]; FIG. 6C) | localization to the spleen ([1]; FIG. 6D) | cell migration toward Sdf1 after preincubation with AMD3100 ([2]; increasing amounts of AMD3100, FIG. 6A) | concentration giving complete inhibition of HSC migration toward Sdf1 ([2]; preincubation with AMD3100, FIG. 6A) [µM] | HSC numbers increase (long-term reconstitution capability of PB cells upon AMD3100 mobilization) [3] | efficiency of AMD3100-induced HSC mobilization in Robo4−/− mice compared to wt mice ([4]; FIG. 4E) | progenitor cell numbers in the blood ([4]; one hour after two sequential AMD3100 injections, wt mice) | circulating HSC ([4]; one hour after two sequential AMD3100 injections, wt mice, FIG. 4D) | increase in PB HSC ([4]; wt mice, AMD3100 mobilization, FIG. 4D) [fold] | HL60 cell migration toward fMLP (HL60 cells) | in vitro proliferation rates of wt HSC (wt HSC) | migration of CD4+T cells toward Sdf1 ([2]; Slit2, FIG. 11B) | HSC migration toward Slit2 ([2]; data not shown) | cell migration toward Sdf1 with Slit2 added ([2]; lineage-depleted BM cells, Sdf1 100 ng/ml, Slit2 250 or 500 ng/ml, 2-hour incubation, FIG. 11A)
c1cc(CN2CCCNCCNCCCNCC2)ccc1CN1CCCNCCNCCCNCC1 [AMD3100] | ~2 | further decrease in BM localization | reciprocal increase | no differences | dose-dependent decrease | 25 | 1.5-8 fold | much greater | increased robustly | surprisingly few | ~1.5 | – | – | – | – | –
B1 | – | – | – | – | – | – | – | – | – | – | – | inhibition | did not affect | not affected | did not detect | No significant differences
